Measured values reported in patent US20220400670A1, “PROTOPANAXATRIOL (PPT)-TYPE COMPOUNDS AS ACTIVE INGREDIENTS IN INSECTICIDE PRODUCTS” (priority 2019, published 2022).
Marks after values point to notes of the source that are not given here.

Assays:
[1] = tested on: Silverleaf whitefly biotype B (neonicotinoid-sensitive strain); assay: Lab tests in cotton: nymph mortality of silverleaf whitefly biotype B; assay type: in vivo, Bemisia tabaci; conditions: cotton plants; acetamiprid-treated (FIG. 3A)
Description: (§1) Cotton plants were grown in pots and sprayed with the indicated materials using a hand-sprayer. 20-25 females of Silverleaf whitefly biotype B (neonicotinoid-sensitive strain) or biotype Q (neonicotinoid-resistant strain) were transferred to each pot and attached to the treated leaves. Nymphs mortality was evaluated 1 and 2 weeks after treatment application and determined by percent (%) of pupation.

[2] = tested on: Silverleaf whitefly biotype Q (neonicotinoid-resistant strain); assay: Lab tests in cotton: nymph mortality of silverleaf whitefly biotype Q; assay type: in vivo, Bemisia tabaci; conditions: cotton plants
Description: as §1

Thrips tabaci [3] = assay: Field tests in cauliflower: Thrips on leaves and Thrips-induced damage; assay type: in vivo; conditions: another experiment, diafenthiuron 375 g/ha, PPT 400 g/ha; for Thrips adults per leaf / Thrips larva per leaf: cauliflower
Text: Cauliflower plants of White Corona variety at 20-30 cm height were sprayed twice at a 7 days interval with the indicted materials at a volume of 400-500 liter per hectare, using 3-nozzled ECHO backpack sprayer. The experiment included 4 repeats in random blocks of […] plants growth, each repeat at an area of 20 m^2. plots having high levels of Thrips tabaci (Thrips) infestation (5-10 Thrips per leaf) at uniform distribution at the beginning of the experiment were chosen for analysis, and 10 leaves per plot were picked and assessed for Thrips number. The number of Thrips adults or larva on each leaf was counted using OptiVISOR® magnifying device. The number of silverleaf whitefly (SLW) nymphs on each leaf was also counted using OptiVISOR® magnifying device.
At the end of the experiment the damage to the upper side of leaves caused by Thrips infestation was assessed on a scale of 0-5, where 0 equals no damage and 5 equals scraping on the leaf's blade (surface).

Thrips tabaci [4] = assay: Field tests in cucumber: number of Thrips on leaves; assay type: in vivo; conditions: second experiment
Text: Cucumber plants of kingstar variety at 170-190 cm height were sprayed twice at a 4 days interval with the indicted materials at a volume of 400-600 liter per hectare, using 3-nozzled ECHO backpack sprayer. The experiment included 4 repeats in random blocks of cucumber plants growth, each repeat at an area of 10-16 m^2. Plots having high levels of Thrips tabaci (Thrips) infestation (5-10 Thrips per leaf) at uniform distribution at the beginning of the experiment were chosen for analysis, and 10 leaves at shoulder height were picked and the number of Thrips was determined for each leaf.

[5] = tested on: Pink Bollworm (Pectinophora gossypiella); assay: Lab tests on pink bollworm eggs: hatching and larva development; assay type: in vivo; conditions: 0.15% PPT solution, 5 repeats
Text: Paper cuttings with Egg clusters of pink bollworm were soaked in a 0.15% PPT solution, and hatching and larva development were observed compared to untreated controls (UTC).

[6] = tested on: Spodoptera littoralis stage 2-3 larva; assay: Screening assay for lethality; assay type: in vivo; conditions: PPT 50 ppm added to artificial medium; 3 screens, 4 larva replicates each
Description: Spodoptera littoralis stage 2-3 larva were grown in entomology trays on artificial medium. Treatment with PPT was effected by the addition of PPT (50 ppm) to the medium and lethality was assessed. The screening assay was repeated 3 times, with 4 larva replicates in each screen.

Aphids (Aphis gossypii) = assay: Field tests in cotton: number of Aphids; assay type: in vivo; conditions: 6 days after the third application; EOS 1%, spinosad 60.5 g/ha, PPT 100 or 300 g/ha (FIG. 4B)
Text: Cotton plants were sprayed 3-4 times at 6-7 days interval with the indicated materials at a volume of 400 liter per hectare. The experiment included 4-5 repeats in random blocks of cotton plants growth, each repeat at an area of 8-10 m^2. The number of Thrips adults or larva, as well as the number of Aphids (Aphis gossypii), on each leaf was counted using OptiVISOR® magnifying device.

[7] = 4 DPA, neem oil 1%, PPT alone 225 g/ha
[8] = 9 DPA, neem oil 1%, PPT alone 225 g/ha
[9] = Day 0 (baseline), neem oil 1%, PPT alone 225 g/ha

In the case of `C/C(=N\C#N)N(C)Cc1ccc(Cl)nc1` [Acetamiprid, reference compound], the “nymph mortality of SLW biotype B, determined by percent of pupation” value [1] is reported as “efficient in eliminating SLW nymphs” and the “nymph mortality of SLW biotype Q, determined by percent of pupation” value ([2]; acetamiprid 10 ppm (FIG. 3B)) is reported as “had no effect”.
`CC(C)c1cc(Oc2ccccc2)cc(C(C)C)c1NC(=S)NC(C)(C)C` [Diafenthiuron, reference compound] was tested, and the “% efficacy on Thrips larva in cauliflower leaves” value (Thrips tabaci [3]; 7 DPA) was 10%, the “% efficacy on Thrips larva in cauliflower leaves” value (Thrips tabaci [3]; 14 DPA) was 0% and the “Thrips adults per leaf” value (Thrips tabaci [3]; 7 DPA) was 1.3 per leaf. The “Thrips larva per leaf” value (Thrips tabaci [3]; 7 DPA) was 13.9 per leaf, the “Thrips adults per leaf” value (Thrips tabaci [3]; 14 DPA) was 2.1 per leaf and the “Thrips larva per leaf” value (Thrips tabaci [3]; 14 DPA) was 9.8 per leaf. The “Thrips adults per leaf” value (Thrips tabaci [3]; Day 0 (baseline)) was 2.9 per leaf and the “Thrips larva per leaf” value (Thrips tabaci [3]; Day 0 (baseline)) was 13.0 per leaf.
For `CC(C)=CCC[C@](C)(O)[C@H]1CC[C@]2(C)[C@@H]1[C@H](O)C[C@@H]1[C@@]3(C)CC[C@H](O)C(C)(C)[C@@H]3[C@@H](O)C[C@]12C` [PPT, Protopanaxatriol], the “% efficacy on Thrips in cucumber leaves” value (Thrips tabaci [4]; 4 DPA, PPT 500 g/ha) was 65.8%, the “Number of Thrips adults on 10 cucumber leaves” value (“Number of Thrips adults” below) (Thrips tabaci [4]; 4 DPA, PPT 500 g/ha) was 42.5 and the “Number of Thrips larva on 10 cucumber leaves” value (from here on “Number of Thrips larva”) (Thrips tabaci [4]; 4 DPA, PPT 500 g/ha) was 30.0^a. For the same compound, the “Number of total Thrips (adults and larva) on 10 cucumber leaves” value (from here on “Number of total Thrips”) (Thrips tabaci [4]; 4 DPA, PPT 500 g/ha) was 72.5^a, the “% efficacy on Thrips in cucumber leaves” value (Thrips tabaci [4]; [7]) was 41.4% and the “Number of Thrips adults” value (Thrips tabaci [4]; [7]) was 78.3. For the same compound, the “Number of Thrips larva” value (Thrips tabaci [4]; [7]) was 45.8^a, the “Number of total Thrips” value (Thrips tabaci [4]; [7]) was 124.0 and the “Number of Thrips adults” value (Thrips tabaci [4]; 9 DPA, PPT 500 g/ha) was 18.0. The “Number of Thrips larva” value (Thrips tabaci [4]; 9 DPA, PPT 500 g/ha) was 13.0, the “Number of total Thrips” value (Thrips tabaci [4]; 9 DPA, PPT 500 g/ha) was 31.0 and the “Number of Thrips adults” value (Thrips tabaci [4]; [8]) was 22.3. For the same compound, the “Number of Thrips larva” value (Thrips tabaci [4]; [8]) was 38.8, the “Number of total Thrips” value (Thrips tabaci [4]; [8]) was 61.0 and the “Number of Thrips adults” value (Thrips tabaci [4]; Day 0 (baseline), PPT 500 g/ha) was 41.8. For the same compound, the “Number of Thrips larva” value (Thrips tabaci [4]; Day 0 (baseline), PPT 500 g/ha) was 110.0, the “Number of total Thrips” value (Thrips tabaci [4]; Day 0 (baseline), PPT 500 g/ha) was 151.8 and the “Number of Thrips adults” value (Thrips tabaci [4]; [9]) was 36.0. For the same compound, the “Number of Thrips larva” value (Thrips tabaci [4]; [9]) was 95.8, the “Number of total Thrips” value (Thrips tabaci [4]; [9]) was 131.8 and the “% efficacy on Thrips larva in cauliflower leaves” value (Thrips tabaci [3]; 7 DPA) was 60%. For the same compound, the “% efficacy on Thrips larva in cauliflower leaves” value (Thrips tabaci [3]; 14 DPA) was 60%, the “Thrips adults per leaf” value (Thrips tabaci [3]; 7 DPA) was 0.6 per leaf and the “Thrips larva per leaf” value (Thrips tabaci [3]; 7 DPA) was 5.9 per leaf. For the same compound, the “Thrips adults per leaf” value (Thrips tabaci [3]; 14 DPA) was 0.48^a,b per leaf, the “Thrips larva per leaf” value (Thrips tabaci [3]; 14 DPA) was 4.4^a,b per leaf and the “Thrips adults per leaf” value (Thrips tabaci [3]; Day 0 (baseline)) was 3.0 per leaf. For the same compound, the “Thrips larva per leaf” value (Thrips tabaci [3]; Day 0 (baseline)) was 16.5 per leaf, the “mortality of resistant SLW biotype (Q) nymphs” value ([2]; PPT 0.075% (0.5x) or 0.15% (1x), dose-dependent (FIG. 3B)) was “up to 93%” and the “Average number of hatchings” value ([5]; day 9 after treatment) was 0.2. The “Average number of larva” value ([5]; day 16 post treatment) was 0, the “Average number of late hatchings” value ([5]; day 16 post treatment) was 1.8 and the lethality to larva [6] was “lethal”.
In the case of spinosad, the “number of Aphids on the cotton plants” value (Aphids (Aphis gossypii)) is reported as “little or no effect”.
